Reference: ChEMBL document CHEMBL4417621, “Methods to identify tas2r modulators” (2013)
The source made the active and inactive calls. No cut-off for these calls is given here.

Assays:
[1] = biological target: T1, Taste receptor type 2 member 16 (Homo sapiens) (UniProt Q9NYV7); experiment: Activation of full-length human TAS2R16 expressed in HEK293T/Galpha16-gustducin 44 cells assessed as effect on calcium flux by measuring deltaF/F0 ratio at 2.5 mM by Fluo-4 dye based FLIPR assay; assay type: functional, cell-based
T1 sequence (whole entry): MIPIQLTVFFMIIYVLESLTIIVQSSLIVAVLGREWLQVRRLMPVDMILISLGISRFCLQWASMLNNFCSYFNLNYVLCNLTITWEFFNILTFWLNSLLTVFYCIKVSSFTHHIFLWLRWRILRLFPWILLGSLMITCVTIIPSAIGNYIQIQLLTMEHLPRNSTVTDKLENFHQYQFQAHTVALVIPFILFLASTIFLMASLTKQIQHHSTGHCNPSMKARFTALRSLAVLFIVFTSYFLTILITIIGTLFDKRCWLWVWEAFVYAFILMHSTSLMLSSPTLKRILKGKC

[2] = biological target: T1, Taste receptor type 2 member 16 (Homo sapiens); experiment: Activation of full-length human TAS2R16 expressed in HEK293T/Galpha16-gustducin 44 cells assessed as effect on calcium flux by measuring deltaF/F0 ratio at 0.1563 mM by Fluo-4 dye based FLIPR assay; assay type: functional, cell-based
[3] = biological target: T1, Taste receptor type 2 member 16 (Homo sapiens); experiment: Activation of full-length human TAS2R16 expressed in HEK293T/Galpha16-gustducin 44 cells assessed as effect on calcium flux by measuring deltaF/F0 ratio at 0.3125 mM by Fluo-4 dye based FLIPR assay; assay type: functional, cell-based
[4] = biological target: T1, Taste receptor type 2 member 16 (Homo sapiens); experiment: Activation of full-length human TAS2R16 expressed in HEK293T/Galpha16-gustducin 44 cells assessed as effect on calcium flux by measuring deltaF/F0 ratio at 1.25 mM by Fluo-4 dye based FLIPR assay; assay type: functional, cell-based
[5] = biological target: T1, Taste receptor type 2 member 16 (Homo sapiens); experiment: Activation of full-length human TAS2R16 expressed in HEK293T/Galpha16-gustducin 44 cells assessed as effect on calcium flux by measuring deltaF/F0 ratio at 0.0781 mM by Fluo-4 dye based FLIPR assay; assay type: functional, cell-based
[6] = biological target: T1, Taste receptor type 2 member 16 (Homo sapiens); experiment: Activation of full-length human TAS2R16 expressed in HEK293T/Galpha16-gustducin 44 cells assessed as effect on calcium flux by measuring deltaF/F0 ratio at 0.0391 mM by Fluo-4 dye based FLIPR assay; assay type: functional, cell-based
[7] = biological target: T1, Taste receptor type 2 member 16 (Homo sapiens); experiment: Activation of full-length human TAS2R16 expressed in HEK293T/Galpha16-gustducin 44 cells assessed as effect on calcium flux by measuring deltaF/F0 ratio at 0.625 mM by Fluo-4 dye based FLIPR assay; assay type: functional, cell-based
[8] = biological target: T1, Taste receptor type 2 member 16 (Homo sapiens); experiment: Activation of full-length human TAS2R16 expressed in HEK293T/Galpha16-gustducin 44 cells assessed as effect on calcium flux by measuring deltaF/F0 ratio at 10 mM by Fluo-4 dye based FLIPR assay; assay type: functional, cell-based
[9] = biological target: T1, Taste receptor type 2 member 16 (Homo sapiens); experiment: Activation of full-length human TAS2R16 expressed in HEK293T/Galpha16-gustducin 44 cells assessed as effect on calcium flux by measuring deltaF/F0 ratio at 5 mM by Fluo-4 dye based FLIPR assay; assay type: functional, cell-based
[10] = biological target: T2, Taste receptor type 2 member 16 (Homo sapiens, UniProt Q9NYV7); experiment: Activation of full-length human TAS2R16 expressed in HEK293T/Galpha16-gustducin 44 cells assessed as stimulation of calcium flux by measuring deltaF/F0 ratio by Fluo-4 dye based FLIPR assay; assay type: functional, cell-based
T2 sequence (Q9NYV7 whole entry): T1 sequence (whole entry)

[11] = biological target: T3, Taste receptor type 2 member 31 (Homo sapiens) (UniProt P59538); experiment: Antagonist activity at full-length human TAS2R44 expressed in HEK293T/Galpha16-gustducin 44 cells assessed as effect on calcium flux by measuring deltaF/F0 ratio at 25 uM in presence of 50 mM sucralose by Fluo-4 dye based FLIPR assay (reference value: 0.192 +/- 0.011); assay type: functional, cell-based
T3 sequence (whole entry): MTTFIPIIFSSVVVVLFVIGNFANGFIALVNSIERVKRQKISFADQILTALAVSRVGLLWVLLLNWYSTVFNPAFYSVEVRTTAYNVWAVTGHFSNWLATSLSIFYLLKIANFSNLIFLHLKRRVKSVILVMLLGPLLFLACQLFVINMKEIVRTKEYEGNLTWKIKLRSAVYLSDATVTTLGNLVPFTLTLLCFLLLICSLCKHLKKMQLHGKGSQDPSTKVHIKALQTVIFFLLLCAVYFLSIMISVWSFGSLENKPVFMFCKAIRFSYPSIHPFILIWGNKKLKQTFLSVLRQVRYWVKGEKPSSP

[12] = biological target: T3, Taste receptor type 2 member 31 (Homo sapiens); experiment: Antagonist activity at full-length human TAS2R44 expressed in HEK293T/Galpha16-gustducin 44 cells assessed as effect on calcium flux by measuring deltaF/F0 ratio at 25 uM in presence of 0.3906 mM sucralose by Fluo-4 dye based FLIPR assay (reference value: 0.046 +/- 0.048); assay type: functional, cell-based
[13] = biological target: T3, Taste receptor type 2 member 31 (Homo sapiens); experiment: Antagonist activity at full-length human TAS2R44 expressed in HEK293T/Galpha16-gustducin 44 cells assessed as effect on calcium flux by measuring deltaF/F0 ratio at 25 uM in presence of 12.5 mM sucralose by Fluo-4 dye based FLIPR assay (reference value: 0.051 +/- 0.004); assay type: functional, cell-based
[14] = biological target: T1, Taste receptor type 2 member 16 (Homo sapiens); experiment: Antagonist activity at full-length human TAS2R16 expressed in HEK293T/Galpha16-gustducin 44 cells assessed as effect on calcium flux by measuring deltaF/F0 ratio at 25 uM in presence of 10 mM phenyl-beta-glucopyranoside by Fluo-4 dye based FLIPR assay; assay type: functional, cell-based
[15] = biological target: T4, Taste receptor type 2 member 1 (Homo sapiens) (UniProt Q9NYW7); experiment: Antagonist activity at full-length human TAS2R1 expressed in HEK293T/Galpha16-gustducin 44 cells assessed as inhibition of sucralose-induced calcium flux at 25 uM by Fluo-4 dye based FLIPR assay; assay type: functional, cell-based
T4 sequence (whole entry): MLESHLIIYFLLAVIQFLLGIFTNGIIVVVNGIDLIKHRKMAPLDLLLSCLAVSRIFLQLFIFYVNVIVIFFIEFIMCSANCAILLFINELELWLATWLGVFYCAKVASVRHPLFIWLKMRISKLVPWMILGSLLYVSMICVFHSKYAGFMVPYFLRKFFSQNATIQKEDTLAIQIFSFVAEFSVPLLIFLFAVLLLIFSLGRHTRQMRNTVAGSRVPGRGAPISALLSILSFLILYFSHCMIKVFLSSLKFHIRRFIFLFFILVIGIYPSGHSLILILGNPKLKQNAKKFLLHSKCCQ

[16] = biological target: T1, Taste receptor type 2 member 16 (Homo sapiens); experiment: Antagonist activity at full-length human TAS2R16 expressed in HEK293T/Galpha16-gustducin 44 cells assessed as effect on calcium flux by measuring deltaF/F0 ratio at 25 uM in presence of 2.5 mM phenyl-beta-glucopyranoside by Fluo-4 dye based FLIPR assay; assay type: functional, cell-based
[17] = biological target: T3, Taste receptor type 2 member 31 (Homo sapiens); experiment: Antagonist activity at full-length human TAS2R44 expressed in HEK293T/Galpha16-gustducin 44 cells assessed as effect on calcium flux by measuring deltaF/F0 ratio at 25 uM in presence of 0.7813 mM sucralose by Fluo-4 dye based FLIPR assay (reference value: 0.038 +/- 0.042); assay type: functional, cell-based
[18] = biological target: T3, Taste receptor type 2 member 31 (Homo sapiens); experiment: Antagonist activity at full-length human TAS2R44 expressed in HEK293T/Galpha16-gustducin 44 cells assessed as effect on calcium flux by measuring deltaF/F0 ratio at 25 uM in presence of 6.25 mM sucralose by Fluo-4 dye based FLIPR assay (reference value: 0.027 +/- 0.029); assay type: functional, cell-based
[19] = biological target: T3, Taste receptor type 2 member 31 (Homo sapiens); experiment: Antagonist activity at full-length human TAS2R44 expressed in HEK293T/Galpha16-gustducin 44 cells assessed as effect on calcium flux by measuring deltaF/F0 ratio at 25 uM in presence of 3.125 mM sucralose by Fluo-4 dye based FLIPR assay (reference value: 0.030 +/- 0.042); assay type: functional, cell-based
[20] = biological target: T1, Taste receptor type 2 member 16 (Homo sapiens); experiment: Antagonist activity at full-length human TAS2R16 expressed in HEK293T/Galpha16-gustducin 44 cells assessed as effect on calcium flux by measuring deltaF/F0 ratio at 25 uM in presence of 0.3125 mM phenyl-beta-glucopyranoside by Fluo-4 dye based FLIPR assay; assay type: functional, cell-based
[21] = biological target: T3, Taste receptor type 2 member 31 (Homo sapiens); experiment: Antagonist activity at full-length human TAS2R44 expressed in HEK293T/Galpha16-gustducin 44 cells assessed as effect on calcium flux by measuring deltaF/F0 ratio at 25 uM in presence of 1.5625 mM sucralose by Fluo-4 dye based FLIPR assay (reference value: 0.042 +/- 0.039); assay type: functional, cell-based
[22] = species: Homo sapiens; experiment: Inhibition of 3 mM sucralose-induced bitter sensitivity in bitter sensitive human panelists tasting solution containing 3 mM sucralose with 13 ppm test compound; assay type: functional, organism-based
[23] = biological target: T1, Taste receptor type 2 member 16 (Homo sapiens); experiment: Antagonist activity at full-length human TAS2R16 expressed in HEK293T/Galpha16-gustducin 44 cells assessed as effect on calcium flux by measuring deltaF/F0 ratio at 25 uM in presence of 5 mM phenyl-beta-glucopyranoside by Fluo-4 dye based FLIPR assay; assay type: functional, cell-based
[24] = biological target: T3, Taste receptor type 2 member 31 (Homo sapiens); experiment: Antagonist activity at full-length human TAS2R44 expressed in HEK293T/Galpha16-gustducin 44 cells assessed as effect on calcium flux by measuring deltaF/F0 ratio at 25 uM in presence of 25 mM sucralose by Fluo-4 dye based FLIPR assay (reference value: 0.110 +/- 0.019); assay type: functional, cell-based
[25] = biological target: T3, Taste receptor type 2 member 31 (Homo sapiens); experiment: Antagonist activity at full-length human TAS2R44 expressed in HEK293T/Galpha16-gustducin 44 cells assessed as effect on calcium flux by measuring deltaF/F0 ratio at 25 uM in presence of 100 mM sucralose by Fluo-4 dye based FLIPR assay (reference value: 0.352 +/- 0.030); assay type: functional, cell-based
[26] = biological target: T1, Taste receptor type 2 member 16 (Homo sapiens); experiment: Antagonist activity at full-length human TAS2R16 expressed in HEK293T/Galpha16-gustducin 44 cells assessed as effect on calcium flux by measuring deltaF/F0 ratio at 25 uM in presence of 1.25 mM phenyl-beta-glucopyranoside by Fluo-4 dye based FLIPR assay; assay type: functional, cell-based
[27] = biological target: T1, Taste receptor type 2 member 16 (Homo sapiens); experiment: Antagonist activity at full-length human TAS2R16 expressed in HEK293T/Galpha16-gustducin 44 cells assessed as effect on calcium flux by measuring deltaF/F0 ratio at 25 uM in presence of 0.0781 mM phenyl-beta-glucopyranoside by Fluo-4 dye based FLIPR assay; assay type: functional, cell-based
[28] = biological target: T1, Taste receptor type 2 member 16 (Homo sapiens); experiment: Antagonist activity at full-length human TAS2R16 expressed in HEK293T/Galpha16-gustducin 44 cells assessed as effect on calcium flux by measuring deltaF/F0 ratio at 25 uM in presence of 0.625 mM phenyl-beta-glucopyranoside by Fluo-4 dye based FLIPR assay; assay type: functional, cell-based
[29] = biological target: T1, Taste receptor type 2 member 16 (Homo sapiens); experiment: Antagonist activity at full-length human TAS2R16 expressed in HEK293T/Galpha16-gustducin 44 cells assessed as effect on calcium flux by measuring deltaF/F0 ratio at 25 uM in presence of 0.1563 mM phenyl-beta-glucopyranoside by Fluo-4 dye based FLIPR assay; assay type: functional, cell-based
[30] = biological target: T1, Taste receptor type 2 member 16 (Homo sapiens); experiment: Antagonist activity at full-length human TAS2R16 expressed in HEK293T/Galpha16-gustducin 44 cells assessed as effect on calcium flux by measuring deltaF/F0 ratio at 25 uM in presence of 0.0391 mM phenyl-beta-glucopyranoside by Fluo-4 dye based FLIPR assay; assay type: functional, cell-based
[31] = test system: HEK-293T; experiment: Effect on calcium flux in HEK293T/Galpha16-gustducin 44 cells assessed as effect on calcium flux by measuring deltaF/F0 ratio at 25 uM in presence of 100 mM sucralose by Fluo-4 dye based FLIPR assay (reference value: -0.179 +/- 0.023); assay type: functional, Homo sapiens
[32] = biological target: T1, Taste receptor type 2 member 16 (Homo sapiens); experiment: Antagonist activity at full-length human TAS2R16 expressed in HEK293T/Galpha16-gustducin 44 cells assessed as inhibition of P-beta-G-induced calcium flux by measuring P-beta-G EC50 at 25 uM by Fluo-4 dye based FLIPR assay; assay type: functional, cell-based

## OC[C@H]1O[C@@H](Oc2ccccc2)[C@H](O)[C@@H](O)[C@@H]1O
[1]
  Ratio: 2.58
[2]
  Ratio: 0.926
[3]
  Ratio: 1.81
[4]
  Ratio: 2.36
[5]
  Ratio: 0.213
[6]
  Ratio: 0.012
[7]
  Ratio: 2.28
[8]
  Ratio: 2.88
[9]
  Ratio: 2.69
[10]
  EC50: 210 µM

## CC1=CCC(C/C=C/C(=O)O)C1(C)C (centres undefined)
[11]
  Ratio: -0.025
[12]
  Ratio: 0.011
[13]
  Ratio: -0.015
[14]
  Ratio: 2.83
[15]
  inhibition: Active
[16]
  Ratio: 2.48
[17]
  Ratio: 0.01
[18]
  Ratio: 0
[19]
  Ratio: 0.005
[20]
  Ratio: 1.55
[21]
  Ratio: 0.016
[22]
  inhibition: Active
[23]
  Ratio: 2.65
[24]
  Ratio: -0.035
[25]
  Ratio: 0.107
[26]
  Ratio: 2.37
[27]
  Ratio: 0.108
[28]
  Ratio: 2.14
[29]
  Ratio: 0.702
[30]
  Ratio: -0.013
[31]
  Ratio: -0.175

## CC1CCC(CCCC(N)=O)C1(C)C (centres undefined)
[15]
  inhibition: inactive
[32]
  inhibition: inactive
[31]; Homo sapiens
  Activity: inactive
